Measured values published in patent US10632147B2, “Methods and compositions for treating inflammatory disorders” (priority 2007, dated 2020).

Columns and labels:
[1] = system: Staphylococcus aureus (MRSA) ATCC #33591; assay: Microbial Time Kill Assay; assay type: cell-based; settings: 150 ppm AFC, 15 second contact time
[2] = system: Escherichia coli ATCC #8739; assay: Microbial Time Kill Assay; assay type: cell-based; settings: 150 ppm AFC, 15 second contact time
[3] = system: Bacteroides fragilis ATCC #25285; assay: Microbial Time Kill Assay; assay type: cell-based; settings: 150 ppm AFC, 15 second contact time
[4] = system: Enterococcus faecium ATCC #35667; assay: Microbial Time Kill Assay; assay type: cell-based; settings: 150 ppm AFC, 15 second contact time
[5] = system: Haemophilus influenza ATCC #8149; assay: Microbial Time Kill Assay; assay type: cell-based; settings: 150 ppm AFC, 15 second contact time
[6] = system: Pseudomonas aeruginosa ATCC #9027; assay: Microbial Time Kill Assay; assay type: cell-based; settings: 150 ppm AFC, 15 second contact time
[7] = system: Serratia marcescens ATCC #14756; assay: Microbial Time Kill Assay; assay type: cell-based; settings: 150 ppm AFC, 15 second contact time
[8] = system: Staphylococcus haemolyticus ATCC #29968; assay: Microbial Time Kill Assay; assay type: cell-based; settings: 150 ppm AFC, 15 second contact time
[9] = system: Staphylococcus saprophyticus ATCC #15305; assay: Microbial Time Kill Assay; assay type: cell-based; settings: 150 ppm AFC, 15 second contact time
[10] = system: Streptococcus pyogenes ATCC #19615; assay: Microbial Time Kill Assay; assay type: cell-based; settings: 150 ppm AFC, 15 second contact time
[11] = system: Pseudomonas aeruginosa ATCC 15442; assay: Bactericidal suspension test; assay type: cell-based
[12] = system: Staphylococcus aureus ATCC 6538; assay: Bactericidal suspension test; assay type: cell-based
[13] = system: Aspergillus niger ATCC 16404; assay: Fungicidal suspension test; assay type: cell-based
Protocol: (§1) Fungicidal activity tests were performed using hypochlorous acid (140-150 ppm) against Candida albicans ATCC 10231 and Aspergillus niger ATCC 16404. Stock culture of Candida albicans ATCC 10231 and Aspergillus niger ATCC 16404 were grown and maintained on Malt Extract Agar at 30° C. […] All samples were serially diluted, plated out on Tryptic Soy Agar, incubated at 37° C. for 3 days and colonies forming units counted.

[14] = system: Candida albicans ATCC 10231; assay: Fungicidal suspension test; assay type: cell-based
Protocol: as §1

[15] = system: Bacillus cereus CIP 7 803; assay: Sporicidal suspension test; assay type: cell-based
[16] = system: Mycobacterium avium ATCC 15769; assay: Mycobactericidal suspension test; assay type: cell-based
Protocol: (§2) Broth cultures of either M. terrae (ATCC 15755) and M. avium (ATCC 15769) were grown for up to 35 days at 35° C. […] The plates were incubated for 4-5 weeks at 35° C. and colonies counted.

[17] = system: Mycobacterium terrae ATCC 15755; assay: Mycobactericidal suspension test; assay type: cell-based
Protocol: as §2

[18] = system: Orthopoxvirus from vaccine; assay type: cell-based
Poliovirus Enterovirus 1 = assay type: cell-based
[19] = system: Enterococcus faecium (VRE); assay: Carrier test; assay type: cell-based; settings: <180 ppm, glass slide carriers
Salmonella choleraesuis = assay: Carrier test; assay type: cell-based; settings: <180 ppm, glass slide carriers
human norovirus = assay: Norovirus suspension test; assay type: cell-based; settings: 20-200 mg/L, within a contact time of 20 seconds
[20] = Ocular irritation study (Draize); assay type: in vivo, New Zealand white rabbits; settings: 0.1 ml, 689.5 ppm AFC, conjunctival sac; Draize scoring days 1, 2 and 3 post dose
Protocol: An eye irritation study was conducted on six healthy New Zealand white rabbits, free from evidence of ocular irritation and corneal abnormalities. The test article (0.1 ml hypochlorous acid, 689.5 ppm AFC) was placed into the conjunctival sac of one eye of each rabbit. The contralateral eye served as a control. The eyes were examined and scored by the Draize technique for any evidence of irritation or abnormalities of the cornea, on days 1, 2, and 3 post dose. The primary eye irritation score of each rabbit, each day was calculated. All eyes appeared normal at each observation period and there were no abnormal physical signs noted.

[21] = Delayed dermal sensitization in guinea pig maximization test; assay type: in vivo; settings: intradermal injection and occlusive patch; scored 24 and 48 hours after patch removal; solution 690 ppm AFC, hydrogel 500 ppm AFC
[22] = system: Salmonella typhimuium (strains TA1535, TA1537, TA98 and TA100); assay: Bacterial mutagenicity; settings: 241-252 ppm AFC, absence and presence of liver S9 fraction
MS2 = MS2 coliphage virus carrier test; settings: ceramic tiles and stainless steels, 1 min contact time, 20-200 ppm, infectivity
[23] = hypochlorous acid 40-180 ppm, suspension test

SMILES: OCl [hypochlorous acid]
- % Reduction (% Kill) [1]: >99.999%
- HOCl Solution Log10 [1]: ≤1
- HOCl Solution Survivors [1]: <10
- Log Reduction [1]: ≥5.20
- % Reduction (% Kill) [2]: >99.999%
- HOCl Solution Log10 [2]: ≤1
- HOCl Solution Survivors [2]: <10
- Log Reduction [2]: ≥5.28
- % Reduction (% Kill) [3]: >99.999%
- HOCl Solution Log10 [3]: ≤1
- HOCl Solution Survivors [3]: <10
- Log Reduction [3]: ≥5.66
- % Reduction (% Kill) [4]: >99.999%
- HOCl Solution Log10 [4]: ≤1
- HOCl Solution Survivors [4]: <10
- Log Reduction [4]: ≥5.08
- % Reduction (% Kill) [5]: >99.999%
- HOCl Solution Log10 [5]: ≤1
- HOCl Solution Survivors [5]: <10
- Log Reduction [5]: ≥5.59
- % Reduction (% Kill) [6]: >99.999%
- HOCl Solution Log10 [6]: ≤1
- HOCl Solution Survivors [6]: <10
- Log Reduction [6]: ≥5.11
- % Reduction (% Kill) [7]: >99.999%
- HOCl Solution Log10 [7]: ≤1
- HOCl Solution Survivors [7]: <10
- Log Reduction [7]: ≥5.08
- % Reduction (% Kill) [8]: >99.999%
- HOCl Solution Log10 [8]: ≤1
- HOCl Solution Survivors [8]: <10
- Log Reduction [8]: ≥5.57
- % Reduction (% Kill) [9]: >99.999%
- HOCl Solution Log10 [9]: ≤1
- HOCl Solution Survivors [9]: <10
- Log Reduction [9]: ≥5.68
- % Reduction (% Kill) [10]: >99.999%
- HOCl Solution Log10 [10]: ≤1
- HOCl Solution Survivors [10]: <10
- Log Reduction [10]: ≥5.53
- contact time after which pass was achieved [11, 23]: 15 s
- Test Result (Log reduction) ([11]; in 5 min., 20° C. ± 1° C.): >10^5 in 5 min.
- contact time after which pass was achieved [12, 23]: 15 s
- Test Result (Log reduction) ([12]; in 5 min., 20° C. ± 1° C.): >10^5 in 5 min.
- contact time after which pass was achieved [13, 23]: 15 s
- Test Result (Log reduction) ([13]; in 5 min., 20° C. ± 1° C.): >10^4 in 5 min.
- contact time after which pass was achieved [14, 23]: 15 s
- Test Result (Log reduction) ([14]; in 5 min., 20° C. ± 1° C.): >10^4 in 5 min.
- contact time after which pass was achieved [15, 23]: 60 min
- Test Result (Log reduction) ([15]; in 60 min., 20° C. ± 1° C.): >10^6 in 60 min.
- contact time after which pass was achieved [16, 23]: 15 s
- Test Result (Log reduction) ([16]; in 5 min., 20° C. ± 1° C.): >10^5 in 5 min.
- contact time after which pass was achieved [17, 23]: 15 s
- Test Result (Log reduction) ([17]; in 5 min., 20° C. ± 1° C.): >10^5 in 5 min.
- contact time after which pass was achieved [18, 23]: 15 min
- Test Result (Log reduction) ([18]; in 15 min., 20° C. ± 1° C.): >10^4 in 15 min.
- contact time after which pass was achieved (Poliovirus Enterovirus 1; [23]): 15 min
- Test Result (Log reduction) (Poliovirus Enterovirus 1; in 15 min., 20° C. ± 1° C.): >10^4 in 15 min.
- Time to achieve pass [19]: 5 min
- Time to achieve pass (Salmonella choleraesuis): 2 min
- reduction of human norovirus (human norovirus): 3 log10
- ocular irritation [20]: no ocular irritation
- delayed dermal contact sensitization [21]: no evidence of causing a delayed dermal contact sensitization
- mutagenic activity [22]: No evidence of mutagenic activity
- inactivation of MS2 (MS2): > 3 log10
